Earlier results on 9 compounds are cited in patent publication US20080089848A1, “INTRATHECAL INJECTION OF MICROBUBBLES” (priority 2006, published 2008).

Data set [1] concerns middle cerebral artery occlusion.
Data set [2] relates to vasospasm.
Data set [3] deals with glutamate-induced nitric oxide related neurotoxicity.
The conditions of data set [4]: systemic administration, patients with intracranial hypertension.
The next data set has as its system traumatic brain injury. Conditions: parental administration no more than 12 hours post-trauma.
Data set [5] concerns primary murine cerebellar granule neurons.
Data set [6] relates to beta amyloid protein; dopaminergic neurons.
The next data set deals with vasospasm following SAH. Conditions: collagen devices, canines with autologous blood in the cisterna magna.
In data set [7] the test system is vasospasm. The source holds these as a separate data set.
[8] abbreviates: rat MCA occlusion, retrograde cerebral vein infusion.
The mark [9] stands for this setting: intracisternal injection, patients, Hamada 2003.

As to `CCNCc1cc(C(C)(C)C)c(O)c(C(C)(C)C)c1` [LY231617], in [1] (setting [8]), the BBB permeability entry is “significant improvement” and the “local cerebral blood flow” value is “significant increase”. In addition, in data set [1] (seven hours post-MCA occlusion), the ischemic damage entry is given as “significantly reduced”.

As for `NCCN(CCN)/[N+]([O-])=N/O` [diethylene-triamine/NO], in the data set on vasospasm [2] (implants in the cisterna magna, Pradilla), the vasospasm in rabbits result is on record as “prevented vasospasm”. Also, the “vasospasm in the rabbit basilar artery” value with vasospasm [2] (implants in the subarachnoid space, Gabikian) is on record as “prevented vasospasm”.

As to `CN(c1nc2ccccc2s1)C1CCN(C[C@H](O)COc2ccc(F)c(F)c2)CC1` [lubeluzole], the “glutamate-induced nitric oxide related neurotoxicity” value in data set [3] is “inhibits”.

As for `O=S(=O)([O-])[O-].[Mg+2]` [magnesium sulfate], in data set [4], the “CSF ionized magnesium concentration” value is reported as “failed to increase” and the “increase of plasma magnesium levels” value was above 50%.

In the case of `[Mg+2]` [magnesium], in the data set with traumatic brain injury, the brain magnesium homeostasis entry was “restores brain magnesium homeostasis”; the “motor and cognitive outcome” value was “profoundly improves both motor and cognitive outcome”.

For the compound TNF-α, the “concentration that markedly reduces the capacity of IGF-I to promote survival” value in [5] is at least 10 pg/mL.

As to VEGF, in [6] (Yang), the “neuroprotection in AD” value is listed as “provides neuroprotection in AD by binding to beta amyloid protein”. The “neuroprotection in PD” value in [6] (low dose, Yasuhara) was “neuroprotective towards dopaminergic neurons”.

For the compound hirudin, in the data set on vasospasm following SAH, the “reduction in the diameter of the basilar artery” value is “lowered the reduction in the diameter of the basilar artery”.

As to urokinase, the “safety and prevention of vasospasms” value with vasospasm [7] (human, in vivo) was “safe and reasonable means of preventing vasospasms”. Moreover, in the data set with vasospasm [7] (setting [9]), the “occurrence of symptomatic vasospasm” value is “significantly reduced” and the “rate of permanent neurological deficits” value is on record as “lower rate”.
